Measured values taken from patent publication US7625948B2, “Ester compound and medicinal use thereof” (Japan Tobacco Inc., priority 2002, dated 2009).

Tests used:
Japanese white rabbits = assay: Test Example 5: combination use test in cholesterol-loaded rabbit model (plasma cholesterol); assay type: in vivo; conditions: 10 mg/kg in high cholesterol diet, from grouping to the 4th day
Procedure: Japanese white rabbits (male, 19 weeks of age, JW, purchased from Kitayama Labes Co., Ltd.) were fed previously in such a way that they were fed a high cholesterol diet (0.3% cholesterol+3% peanut oil-added RC-4, Product of Oriental Yeast Co., Ltd.) of 70 g/day under limited feeding for one day. The rabbits thus fed were used as a cholesterol-loaded rabbit model, and the grouping of such model was carried out in such a way that there might be no variation in the amount of plasma cholesterol among each group (five rabbits/group). […] The rabbits were fed 70 g of each diet every morning. Blood was collected from auricular artery 6 hours after the feeding on the 4th day of the administration, and cholesterol level in plasma was assayed. In the table, increased amount of plasma cholesterol during from the time of grouping to the 4th day was shown.

[1] = Test Example 7: metabolic stability test in human liver S9; assay type: in vitro ADME; conditions: human liver S9, 2 mg protein/mL, 37° C.
Procedure: (§1) Metabolic Stability Test in Liver S9 and Small Intestine S9
(§2) Human and hamster liver S9 (final concentration: 2 mg protein/mL), and human and hamster small intestine S9 (final concentration: 2 mg protein/mL) were each suspended in 100 mM potassium phosphate buffer (pH 7.4, containing β-nicotinamide adenine dinucleotide phosphate: 1.3 mM, D-glucose-6-phosphate: 3.3 mM, magnesium chloride: 3.3 mM, glucose-6-phosphate dehydrogenase: 0.4 U/mL). The suspensions were mixed with a solution of a sample (Example 2-5) in DMSO. The solutions were incubated at 37° C. for 0, 10 and 60 minutes, and an organic solvent was added thereto. The solutions were centrifuged, and the concentration of the sample (unchanged form) in the supernatant was determined by high performance liquid chromatography/mass spectrometry (LC/MS). Based on the data obtained, remaining rate (%) was calculated according to the following equation.
(§3) Remaining rate(%)=amount of sample 10 or 60 minutes after incubation/amount of sample at zero time after incubation×100

[2] = Test Example 7: metabolic stability test in hamster liver S9; assay type: in vitro ADME; conditions: hamster liver S9, 2 mg protein/mL, 37° C.
Procedure: as §1, §2, §3

[3] = Test Example 7: metabolic stability test in human small intestine S9; assay type: in vitro ADME; conditions: human small intestine S9, 2 mg protein/mL, 37° C.
Procedure: as §1, §2, §3

[4] = Test Example 7: metabolic stability test in hamster small intestine S9; assay type: in vitro ADME; conditions: hamster small intestine S9, 2 mg protein/mL, 37° C.
Procedure: as §1, §2, §3

CCOC(=O)C(COC(=O)Cc1ccc(NC(=O)c2ccccc2-c2ccc(C(F)(F)F)cc2)c(C(=O)N(C)C)c1)(C(=O)OCC)c1ccccc1 [Example 2-5]
Increased amount of total cholesterol (Japanese white rabbits): 8.6 mg/dL
Remaining rate (%) after 10 min. ([1]; 10 min): 7.9%
Remaining rate (%) after 60 min. ([1]; 60 min): 4.3%
Remaining rate (%) after 10 min. ([2]; 10 min): 2.4%
Remaining rate (%) after 60 min. ([2]; 60 min): 0%
Remaining rate (%) after 10 min. ([3]; 10 min): 97.6%
Remaining rate (%) after 60 min. ([3]; 60 min): 91.5%
Remaining rate (%) after 10 min. ([4]; 10 min): 29.0%
Remaining rate (%) after 60 min. ([4]; 60 min): 14.1%
